# Like-named read-outs stand apart in the source and are kept apart here.
# Tests used:
# GAK [1] = molecular target: T1, GAK (Homo sapiens, UniProt O14976); assay: TR-FRET ligand-binding displacement assay
# T1 sequence (O14976 1-1311): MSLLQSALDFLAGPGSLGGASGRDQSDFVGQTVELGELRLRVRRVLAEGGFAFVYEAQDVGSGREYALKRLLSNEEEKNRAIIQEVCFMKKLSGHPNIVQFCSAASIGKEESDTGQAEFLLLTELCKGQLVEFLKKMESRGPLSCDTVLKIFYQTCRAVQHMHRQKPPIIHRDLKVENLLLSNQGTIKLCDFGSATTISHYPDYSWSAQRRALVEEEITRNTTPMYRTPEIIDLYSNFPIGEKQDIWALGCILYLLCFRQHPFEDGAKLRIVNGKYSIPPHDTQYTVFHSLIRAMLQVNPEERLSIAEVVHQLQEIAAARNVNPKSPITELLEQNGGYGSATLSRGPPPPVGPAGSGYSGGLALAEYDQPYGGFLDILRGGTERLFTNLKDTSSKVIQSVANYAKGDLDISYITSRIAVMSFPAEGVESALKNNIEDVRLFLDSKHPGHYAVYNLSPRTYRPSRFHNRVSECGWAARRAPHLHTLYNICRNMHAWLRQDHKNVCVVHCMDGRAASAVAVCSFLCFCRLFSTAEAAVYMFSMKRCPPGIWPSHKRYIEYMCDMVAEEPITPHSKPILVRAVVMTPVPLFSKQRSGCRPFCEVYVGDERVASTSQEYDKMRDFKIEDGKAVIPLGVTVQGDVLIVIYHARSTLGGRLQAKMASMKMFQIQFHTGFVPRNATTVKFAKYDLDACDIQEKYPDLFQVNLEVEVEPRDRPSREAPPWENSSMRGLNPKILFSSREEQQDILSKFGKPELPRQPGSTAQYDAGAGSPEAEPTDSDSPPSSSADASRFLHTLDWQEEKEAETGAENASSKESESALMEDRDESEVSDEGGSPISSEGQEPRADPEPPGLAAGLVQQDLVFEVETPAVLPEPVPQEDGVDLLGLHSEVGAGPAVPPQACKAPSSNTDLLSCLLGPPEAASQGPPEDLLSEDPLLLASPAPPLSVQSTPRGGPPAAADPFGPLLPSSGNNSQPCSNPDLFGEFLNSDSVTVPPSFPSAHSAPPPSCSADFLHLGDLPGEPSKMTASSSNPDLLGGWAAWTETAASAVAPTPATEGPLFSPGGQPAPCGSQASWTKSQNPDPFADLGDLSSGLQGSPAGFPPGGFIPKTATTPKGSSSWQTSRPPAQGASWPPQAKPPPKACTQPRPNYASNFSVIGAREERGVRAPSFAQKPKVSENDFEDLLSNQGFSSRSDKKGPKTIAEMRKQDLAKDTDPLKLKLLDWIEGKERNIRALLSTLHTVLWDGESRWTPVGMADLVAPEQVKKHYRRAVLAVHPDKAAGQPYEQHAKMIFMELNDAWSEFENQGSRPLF
# GAK [2] = molecular target: T1, GAK; assay: live cell NanoBRET target engagement assay; type: cell-based; conditions: for IC50 values in cells: live cell NanoBRET assay; for IC50: nanoBRET, mean average, n = 2
# [3] = mouse liver microsome metabolic stability; conditions: for T1/2 Ratio: normalization with respect to internal control (propranolol); for half-life / CLint scaled: mouse
# Procedure: SGC-GAK-1 (1) was incubated with MLMs in the presence or absence of added NADPH, and the compound was quantified at various time points over an hour.
# The metabolic stability of the 4-anilinoquinolines (8–13) were evaluated in MLMs (Table 1). Half-lives for metabolic clearance were normalized to propranolol in each experimental run to control for variations in the MLM preparations.
# AAK1 = AAK1 (Homo sapiens, UniProt Q2M2I8); assay: NAK family TR-FRET binding displacement assay; conditions: NAK family FRET screening
# Sequence of AAK1 (Q2M2I8 whole entry): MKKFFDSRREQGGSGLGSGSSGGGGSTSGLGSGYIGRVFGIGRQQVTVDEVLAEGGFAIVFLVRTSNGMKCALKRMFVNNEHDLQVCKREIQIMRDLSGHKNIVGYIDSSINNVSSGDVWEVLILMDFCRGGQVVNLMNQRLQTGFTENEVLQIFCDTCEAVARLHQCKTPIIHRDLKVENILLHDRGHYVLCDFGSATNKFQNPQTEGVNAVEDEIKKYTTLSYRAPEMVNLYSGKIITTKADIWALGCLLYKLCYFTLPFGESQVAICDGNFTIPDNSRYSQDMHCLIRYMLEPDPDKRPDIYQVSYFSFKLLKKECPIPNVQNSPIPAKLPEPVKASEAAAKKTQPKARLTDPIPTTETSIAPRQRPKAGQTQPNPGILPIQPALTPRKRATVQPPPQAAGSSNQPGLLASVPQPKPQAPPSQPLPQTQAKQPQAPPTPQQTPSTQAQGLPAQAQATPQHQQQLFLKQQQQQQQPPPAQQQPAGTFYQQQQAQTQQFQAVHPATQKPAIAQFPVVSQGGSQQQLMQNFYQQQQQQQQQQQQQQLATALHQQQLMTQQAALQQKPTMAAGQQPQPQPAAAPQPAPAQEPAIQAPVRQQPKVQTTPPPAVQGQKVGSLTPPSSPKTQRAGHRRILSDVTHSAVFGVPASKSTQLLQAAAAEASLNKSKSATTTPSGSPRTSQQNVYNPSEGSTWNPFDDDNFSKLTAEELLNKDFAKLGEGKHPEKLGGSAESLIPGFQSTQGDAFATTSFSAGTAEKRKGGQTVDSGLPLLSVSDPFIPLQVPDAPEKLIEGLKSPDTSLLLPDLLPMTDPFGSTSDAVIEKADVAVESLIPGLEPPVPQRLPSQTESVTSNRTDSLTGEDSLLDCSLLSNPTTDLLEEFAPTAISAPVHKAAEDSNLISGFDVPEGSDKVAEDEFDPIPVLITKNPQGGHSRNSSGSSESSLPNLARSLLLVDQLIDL
# BMP2K = BMP2K (Homo sapiens, UniProt Q9NSY1); assay: NAK family TR-FRET binding displacement assay
# Sequence of BMP2K (Q9NSY1 whole entry): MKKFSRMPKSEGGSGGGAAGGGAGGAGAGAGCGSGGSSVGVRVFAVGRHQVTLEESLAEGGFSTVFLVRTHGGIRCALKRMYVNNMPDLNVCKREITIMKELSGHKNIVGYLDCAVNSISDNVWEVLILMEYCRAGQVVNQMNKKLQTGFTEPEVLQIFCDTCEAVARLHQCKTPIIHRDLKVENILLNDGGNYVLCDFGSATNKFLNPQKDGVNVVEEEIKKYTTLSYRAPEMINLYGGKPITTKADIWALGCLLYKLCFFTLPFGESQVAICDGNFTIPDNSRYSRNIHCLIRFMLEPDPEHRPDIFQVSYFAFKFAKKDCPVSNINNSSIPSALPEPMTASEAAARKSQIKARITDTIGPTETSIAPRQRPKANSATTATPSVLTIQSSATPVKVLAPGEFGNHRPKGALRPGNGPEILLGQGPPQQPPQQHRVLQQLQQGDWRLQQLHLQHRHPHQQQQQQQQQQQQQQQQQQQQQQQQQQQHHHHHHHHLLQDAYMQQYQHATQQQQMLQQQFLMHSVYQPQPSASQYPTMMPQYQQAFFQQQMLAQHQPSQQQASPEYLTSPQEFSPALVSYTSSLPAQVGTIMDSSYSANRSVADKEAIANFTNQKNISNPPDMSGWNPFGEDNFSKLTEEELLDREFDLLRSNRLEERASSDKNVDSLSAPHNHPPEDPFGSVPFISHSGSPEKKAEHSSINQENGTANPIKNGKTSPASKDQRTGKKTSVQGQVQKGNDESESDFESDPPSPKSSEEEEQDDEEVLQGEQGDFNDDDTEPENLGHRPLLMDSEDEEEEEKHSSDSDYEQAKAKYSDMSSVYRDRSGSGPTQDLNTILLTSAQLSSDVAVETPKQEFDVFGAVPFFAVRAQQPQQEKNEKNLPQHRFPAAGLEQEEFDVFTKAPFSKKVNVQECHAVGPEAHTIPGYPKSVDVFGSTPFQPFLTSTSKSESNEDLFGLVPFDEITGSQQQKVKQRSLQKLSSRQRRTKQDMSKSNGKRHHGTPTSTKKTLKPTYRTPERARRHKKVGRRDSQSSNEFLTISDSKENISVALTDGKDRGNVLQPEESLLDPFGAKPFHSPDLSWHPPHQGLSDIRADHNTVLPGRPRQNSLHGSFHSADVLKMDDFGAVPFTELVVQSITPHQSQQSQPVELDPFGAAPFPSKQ
# STK16 = STK16 (Homo sapiens, UniProt O75716); assay: NAK family TR-FRET binding displacement assay
# Sequence of STK16 (O75716 whole entry): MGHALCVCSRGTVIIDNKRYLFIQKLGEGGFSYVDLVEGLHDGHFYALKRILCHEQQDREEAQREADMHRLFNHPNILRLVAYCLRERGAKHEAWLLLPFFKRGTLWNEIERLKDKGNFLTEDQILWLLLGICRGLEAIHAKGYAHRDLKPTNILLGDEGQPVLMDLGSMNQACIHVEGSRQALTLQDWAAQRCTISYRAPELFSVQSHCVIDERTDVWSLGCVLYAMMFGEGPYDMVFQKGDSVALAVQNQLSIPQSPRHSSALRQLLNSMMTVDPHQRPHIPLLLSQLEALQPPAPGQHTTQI
# Kinetic Solubility = type: physicochemical; conditions: PBS pH7.4 (100 µM)
# [4] = TR-FRET assay, read-out: Biochemical GAK Ki
# [5] = mouse liver microsomes, T1/2 (min), mouse liver microsomes with NADPH, mean average, n = 2
# [6] = NAK family FRET screening, read-out: Binding displacement assay STK16 Ki
# [7] = pH 7.4, aqueous buffer, kinetic from dmso stock, read-out: Kinetic Solubility µM
# [8] = pH 7.4, aqueous buffer, kinetic from dmso stock, read-out: Kinetic Solubility µg/mL
Molecule,Ki (GAK [1]; [4]) [µM],IC50 values in cells (GAK [2]),IC50 (GAK [2]) [µM],T1/2 Ratio ([3]; mouse liver microsomes),"half-life [3, 5] [min]",Ki (AAK1) [µM],Ki (BMP2K) [µM],Ki (STK16; [6]) [µM],solubility kinetic (Kinetic Solubility; [7]) [µM],solubility kinetic (Kinetic Solubility; [8]) [µg/mL],other results
"Brc1ccc2nccc(Nc3cccc4[nH]ncc34)c2c1 [Compound 32, 6-Bromo-N-(1H-indazol-4-yl)quinolin-4-amine]",0.014,submicromolar,0.76,0.32,2.5,4.6,7.4,19,5.1,1.7,
N-(1H-Indazol-4-yl)-6-(trifluoromethyl)quinolin-4-amine [Compound 33],0.72,,> 5,0.90,,4.6,,11,,,"T1/2 ([3]; mouse liver microsomes with NADPH, mean average, n = 2): 5.9 min; Ki (BMP2K; NAK family FRET screening, read-out: Binding displacement assay BMP2K Ki): 16 µM; Kinetic Solubility µg/mL (Kinetic Solubility): 8.2 µg/mL; solubility kinetic (Kinetic Solubility; read-out: Kinetic Solubility µM): 24.2 µM"
"Brc1ccc2nccc(Nc3cccc4oncc34)c2c1 [Compound 22, N-(6-Bromoquinolin-4-yl)benzo[d]isoxazol-4-amine]",0.019,,> 5,0.17,1.4,4.6,15,,3.6,1.2,Ki (STK16): 15 µM
"Brc1ccc2nccc(Nc3cccc4cnoc34)c2c1 [Compound 21, N-(6-Bromoquinolin-4-yl)benzo[d]isoxazol-7-amine]",0.037,,1.4,0.64,5.2,4.6,12,7.6,24.9,8.5,
"Brc1ccc2nccc(Nc3cccc4scnc34)c2c1 [Compound 25, N-(6-Bromoquinolin-4-yl)benzo[d]thiazol-4-amine]",0.026,,> 5,0.32,2.6,1.2,> 100,> 100,1.1,0.4,
"Brc1ccc2nccc(Nc3ccc4[nH]ncc4c3)c2c1 [Compound 37, 6-Bromo-N-(1H-indazol-5-yl)quinolin-4-amine]",0.047,,> 5,0.92,7.5,0.52,0.66,5.7,12.3,4.2,

# The next molecules have a lower IC50 (GAK [2]) than those just listed; values first:
Ki (GAK [1]; [4]) [µM],IC50 values in cells (GAK [2]),IC50 (GAK [2]) [µM],T1/2 Ratio ([3]; mouse liver microsomes),"half-life [3, 5] [min]",Ki (AAK1) [µM],Ki (BMP2K) [µM],Ki (STK16; [6]) [µM],solubility kinetic (Kinetic Solubility; [7]) [µM],solubility kinetic (Kinetic Solubility; [8]) [µg/mL],Molecule,other results
0.0014,,0.12,0.27,1.8,9.7,16,20,8.8,3.2,"Fc1ccc2c(c1Nc1ccnc3ccc(Br)cc13)OCO2 [Compound 14, 6-Bromo-N-(5-fluorobenzo[d][1,3]dioxol-4-yl)quinolin-4-amine]","T1/2 Ratio (+) ABT ([3]; mouse liver microsomes, (+) ABT, normalized to propranolol): 0.18; T1/2 Ratio (−) ABT ([3]; mouse liver microsomes, (−) ABT, normalized to propranolol): 0.05; CLint scaled ([3]; mouse liver microsomes, Clint (mL/min/kg) (+) ABT, mouse liver microsomes, (+) ABT): 137 L/h/kg; CLint scaled ([3]; mouse liver microsomes, Clint (mL/min/kg) (−) ABT, (−) ABT): 453 L/h/kg; half-life ([3]; mouse liver microsomes, T1/2 (min) (+) ABT, mouse liver microsomes, (+) ABT, mean average, n = 2): 2.5 min; half-life ([3]; mouse liver microsomes, T1/2 (min) (−) ABT, (−) ABT, mean average, n = 2): 0.74 min"
,submicromolar,0.22,0.68,5.3,2.6,7.9,,8.6,3.1,"Brc1ccc2nccc(Nc3cccc4ncsc34)c2c1 [Compound 24, N-(6-Bromoquinolin-4-yl)benzo[d]thiazol-7-amine]","Ki (GAK [1]; NAK family FRET screening, read-out: Binding displacement assay GAK Ki): 0.0041 µM; Ki (STK16): 7.8 µM"
0.0053,submicromolar,0.4,0.20,1.6,2,4.3,22,1.7,0.6,"Brc1ccc2nccc(Nc3cccc4nsnc34)c2c1 [Compound 29, N-(6-Bromoquinolin-4-yl)benzo[c][1,2,5]thiadiazol-4-amine]",

# — PMC6891286, “Towards the Development of an In vivo Chemical Probe for Cyclin G Associated Kinase (GAK)” (Molecules, 2019)
